Laboratory results from publication doi:10.1101/365908v1 (biorxiv, 2018).

Target: T1, human GSDMD (full-length) (Homo sapiens, UniProt P57764)
T1 sequence (P57764 1-484): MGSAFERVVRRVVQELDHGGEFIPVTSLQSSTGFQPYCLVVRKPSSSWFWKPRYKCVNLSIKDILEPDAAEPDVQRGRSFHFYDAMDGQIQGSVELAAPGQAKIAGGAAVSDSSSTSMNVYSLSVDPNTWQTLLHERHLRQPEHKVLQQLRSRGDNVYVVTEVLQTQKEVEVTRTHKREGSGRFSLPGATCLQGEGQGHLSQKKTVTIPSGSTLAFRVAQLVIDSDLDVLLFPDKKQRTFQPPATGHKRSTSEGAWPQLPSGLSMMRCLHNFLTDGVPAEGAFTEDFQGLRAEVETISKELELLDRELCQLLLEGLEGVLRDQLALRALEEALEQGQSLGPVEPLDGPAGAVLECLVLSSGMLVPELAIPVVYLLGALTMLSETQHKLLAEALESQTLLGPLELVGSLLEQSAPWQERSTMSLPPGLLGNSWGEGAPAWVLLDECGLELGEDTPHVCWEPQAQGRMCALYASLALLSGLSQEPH
Assay: Tb3+/DPA liposome leakage
Assay type: biochemical
Details: covalent (Cys191); 1 h preincubation; cleavage by 0.15 µM caspase-11; no Cu(II)

## CCN(CC)C(=S)SSC(=S)N(CC)CC [C-23, Tetraethylthiuram disulfide]
  IC50: 300 ± 10 nM
